{"source": "patent US11911439B2", "about": "“Beta-casein A2 and prevention of inflammation of the bowel” (THE A2 MILK COMPANY LIMITED, priority 2013, dated 2024)", "molecules": {"B1": {"name": "beta-casein A1 (protein, UniProt P02666 16-224, looked up, variant P67H)", "Beta-casein": "RELEELNVPGEIVESLSSSEESITRINKKIEKFQSEEQQQTEDELQDKIHPFAQTQSLVYPFPGPIHNSLPQNIPPLTQTPVVVPPFLQPEVMGVSKVKEAMAPKHKEMPFPKYPVEPFTESQSLTLTDVENLHLPLPLLQSWMHQPHQPLPPTVMFPPQSVLSLSQSKVLPVPQKAVPYPQRDMPIQAFLLYQEPVLGPVRGPFPIIV"}, "B2": {"name": "beta-casein A2 (protein, UniProt P02666 16-224, looked up)", "Beta-casein": "B1 Beta-casein with H67P", "notes": "any beta-casein having proline at position 67"}}, "key": {"SH-SY5Y cells [1]": {"system": "SH-SY5Y cells", "assay": "Whole genome mRNA microarray", "type": "cell-based, human", "details": "FDR<0.1; for differentially expressed transcripts (DETs): cells treated for 4 hours", "protocol": "(§1) The changes in SAM/SAH could potentially affect global DNA methylation, influencing the genes involved in various functions. The global DNA methylation levels induced by BCM-7 were investigated using methyl-CpG binding domain (MBD) protein-enriched genome sequencing (MBD-seq) as described previously (Trivedi M., et al., Mol. Pharm. 2014), whereas mRNA translation microarray data was obtained using Agilent V3 microarray chip, from non-treated control SH-SY5Y cells and cells treated for 4 hours with 1 μM BCM-7.\nFor whole genome microarray hybridisations, 500 ng of total RNA from each sample was labelled with fluorescent dye (Cy3; Amersham Biosciences Corp, Piscataway, NJ) using the Low RNA Input Linear Amplification Labelling kit (Agilent Technologies, Palo Alto, CA) following the manufacturer's protocol. The amount and quality of the fluorescently labelled cRNA was assessed using a NanoDrop ND-1000 spectrophotometer and an Agilent Bioanalyzer. According to manufacturer's specifications, […] of Cy3-labeled cRNA was hybridized to the Agilent Human Whole Genome Oligo Microarray (Agilent Technologies, Inc., Palo Alto, CA) for 17 hrs prior to washing and scanning. Data was extracted from scanned images using Feature Extraction Software (Agilent Technologies, Inc., Palo Alto, CA).\nTranscripts included both genes and non-coding RNAs that were differentially methylated/transcribed."}, "SH-SY5Y neuronal cells": {"system": "SH-SY5Y neuronal cells", "assay": "Intracellular cysteine, GSH and methylation metabolites by HPLC", "type": "cell-based, human", "protocol": "Briefly, SH-SY5Y neuronal cells were grown to confluence in α-MEM. Media was aspirated and the cells were washed twice with 1 mL of ice cold HBSS. HBSS was aspirated and 0.6 mL ice cold dH2O was added to the cells. The cells were scraped from the flask/dish and suspended in dH2O. The cell suspension was sonicated for 15 s on ice and 100 μL of the suspension was used to determine the protein content. The remaining lysate was added to a microcentrifuge tube and an equal volume of 0.4 N perchloric acid was added, followed by incubation on ice for 5 min. Samples were centrifuged at 5,000×g and the supernatant transferred to new microcentrifuge tubes. 100 μL of sample was added to a conical micro-autosampler vial and kept at 4° C. in the autosampler cooling tray. 10 μL of this sample was injected into the HPLC system.\nThe separation of redox and methylation pathway metabolites was accomplished using an Agilent Eclipse XDB-C8 analytical column (3×150 mm; 3.5 μm) and an Agilent Eclipse XDB-C8 (4.6×12.5 mm; 5 μm) guard column. Two mobile phases were used: Mobile Phase A was 0% acetonitrile, 25 mM sodium phosphate, 1.4 mM 1-octanesulfonic acid, adjusted to pH 2.65 with phosphoric acid. Mobile Phase B was 50% acetonitrile. The flow rate was initially set at 0.6 mL/min and a step gradient was used: 0-9 min 0% B, 9-19 min 50% B, 19-30 min 50% B. The column was then equilibrated with 5% B for 12 min prior to the next run. Temperature was maintained at 27° C. The electrochemical detector was an ESA CoulArray with BDD Analytical cell Model 5040 and the operating potential was set at 1500 mV. Sample concentrations were determined from the peak areas of metabolites using standard calibration curves and ESA-supplied HPLC software. Sample concentrations were normalised against protein content. In some cases samples were diluted in mobile phase as needed or up to 50 μl of sample was injected to assure that thiol levels were within the range of the standard curve."}, "SH-SY5Y cells [2]": {"system": "SH-SY5Y cells", "assay": "Global DNA methylation by MBD-seq", "type": "cell-based, human", "details": "after BCM-7 exposure", "protocol": "as §1\nBriefly, genomic DNA was extracted from samples with the Easy DNA kit (Invitrogen K1800-01) using the appropriate protocol for cell lines. Fragmentation was performed on Covaris S2 with the following settings: duty cycle 10%, intensity 5, 200 cycles per burst during 200 sec. Fragments were obtained having an average length of 200 bp. […] DNA with an input from 5-3 3 μg was analysed on the Agilent 2100 using a DNA 1000 chip. […] The concentrations of fragmented and captured DNA were determined on a Fluostar Optima plate reader with the Quant-IT PicoGreen dsDNA Assay Kit (Invitrogen P7589) at 480/520 nm. […]\nThe Illumina library amplification index protocol was used with the following alterations: 22 μl DNA was used and performed 21 cycles run. […] 1 μl was applied to a Agilent 2100 HS DNA chip and the concentration was determined by smear analysis on the Agilent 2100. […]"}, "[3]": {"system": "SH-SY5Y human neuronal cells", "protocol": "(§2) Pre-treatment in cells was performed for different time points for 30 min, 4, 24 and 48 h as described previously (Trivedi M., et al.; Mol. Pharm., 2014). Briefly, SH-SY5Y human neuronal cells and Caco-2 Gut epithelial cells were plated in six-well plates and were pretreated with drugs and incubated for various times prior to measuring uptake. Media were aspirated and cells were washed with 600 μL of HBSS at 37° C. Non-radioactive HBSS was aspirated, replaced with 600 μL of 37° C. HBSS containing [^35S]-cysteine, (1 μCi/1 mL), 10 μM unlabelled cysteine and 100 μM DTT, and the cells were incubated for 5 min. The [^35S]-cysteine/HBSS mixture was aspirated and treatment was terminated by two washes with ice-cold HBSS. Cells were then lysed with 600 μL of dH2O, scraped, collected in 1.5 mL microcentrifuge tubes, and sonicated for 10 s. 100 μL of each sample was aliquoted for protein assay. 200 μL of each sample (in triplicate) was aliquoted into scintillation vials with 4 mL of scintillation fluid, vortexed, and counted for radioactivity, normalized against protein content. […] Each * symbol in these Figures indicates a statistically significant difference (p<0.05) compared against the untreated control, and each #symbol indicates a statistically significant difference (p<0.005) compared against the untreated control."}, "[4]": {"system": "Caco-2 Gut epithelial cells", "details": "read-out: IC50 inhibition of cysteine uptake; GI epithelial cells", "protocol": "as §2"}, "[5]": {"system": "colon myeloperoxidase (MPO) activity", "assay": "Colon MPO activity in rats fed A1/A2 diets", "type": "in vivo, Wistar rats", "protocol": "(§3) Seventy two weaned (four week old) male Wistar rats were used. Following a 7-day acclimatisation period on a control diet, the rats were fed for either 12 or 60 hours with one of three diets: 100% A1 diet, 100% A2 diet, control diet (n=6 per treatment). The protein component of the diets were derived from skim milk (for the A1 and A2 diets) and on egg white (for the non-milk protein control diet), and were balanced for energy and macronutrient composition (see Table 1). Fifteen minutes before the end of the time period, rats received either naloxone or saline (control) via intra-peritoneal injection, and were then orally gavaged with a non-digestible tracer, titanium dioxide. Faecal and urine samples were collected at 7 time points over the following 24 hours, and stored at −20° C. (faecal) or −80° C. (urine) until they were analysed.\n(§4) Colon tissue from the rats fed according to Example 1 was quantified for myeloperoxidase (MPO) activity based on an established method (Grisham, M. B., et al., Methods Enzymol., 1990, 186:729-742). Colon tissue (50 mg) was homogenised, partitioned via centrifugation, ruptured by ultrasonic probe and subjected to a freeze-thaw cycle. Endogenous MPO catalyses H2O2-dependent oxidation of 3,3′,5,5′-tetramethyl-benzidine substrate measured colourimetrically at 562 nm. […]"}, "[6]": {"system": "jejunum myeloperoxidase (MPO) activity", "assay": "Jejunum MPO activity in rats fed A1/A2 diets", "type": "in vivo, Wistar rats", "details": "on consumption of beta-casein A1", "protocol": "as §3, §4\nIn this example, tissue samples taken from the jejunum were analysed. […]"}, "colon tissue": {"system": "colon tissue", "assay": "Intestinal histology of colon sections", "type": "in vivo, Wistar rats", "details": "60 hour naloxone group, A2-fed versus A1-fed rats, P<0.05", "protocol": "as §3\nThe procedure used for measuring change in morphology in the gastrointestinal tract of rats is based on histological evaluation of haemoxylin and eosin stained tissue sections under a light microscope (Knoch, B. et al., J. Nutrigenet. Nutrigenomics, 2009, 2(1):9-28 and Barnett, M. P., BMC Immunol., 2010, 11:39). This method was applied to sections derived from colon tissue of rats fed either the 100% A1 or 100% A2 diets to determine the effects of the beta-casein variants on intestinal inflammation."}, "[7]": {"details": "neuronal cells, 30 min, 4 h, 24 h"}}, "note": "Residue numbers refer to the chain shown, from its start. Where a SMILES comes first, the peptide text is derived from it."}
{"molecule": "CN1CC[C@]23c4c5ccc(O)c4O[C@H]2[C@@H](O)C=C[C@H]3[C@H]1C5", "note": "[morphine]", "values": [{"measurement": "DETs shared by both morphine and BCM-7", "setting": "SH-SY5Y cells [1]", "value": 501}, {"measurement": "differentially expressed transcripts (DETs)", "setting": "SH-SY5Y cells [1]", "value": "7,592"}, {"measurement": "cysteine levels", "setting": "SH-SY5Y neuronal cells; [7]", "value": "time-dependent decreases"}]}
{"molecule": "CC[C@H](C)[C@H](NC(=O)[C@@H]1CCCN1C(=O)CNC(=O)[C@@H]1CCCN1C(=O)[C@H](Cc1ccccc1)NC(=O)[C@@H]1CCCN1C(=O)[C@@H](N)Cc1ccc(O)cc1)C(=O)O", "note": "[BCM-7, beta-casomorphin-7] (H-YPFPGPI-OH; N-terminus and C-terminus assumed)", "values": [{"measurement": "epigenetic status (DNA methylation) of cytokines such as NFkappaB and interleukins such as IL1", "setting": "SH-SY5Y cells [2]", "value": "altered"}, {"measurement": "epigenetic status of the MPO gene", "setting": "SH-SY5Y cells [2]", "value": "alters the epigenetic status"}, {"measurement": "DETs shared by both morphine and BCM-7", "setting": "SH-SY5Y cells [1]", "value": 501}, {"measurement": "differentially expressed transcripts (DETs)", "setting": "SH-SY5Y cells [1]", "value": "1,467"}, {"measurement": "receptor mediation of cysteine uptake inhibition", "setting": "[3]; blockade by selective μ-antagonist (CTAP), not by delta antagonist (NTI)", "value": "μ-opioid receptor mediated"}, {"measurement": "time at which inhibition of cysteine uptake was fully developed", "setting": "[3]; neuronal cells and GI epithelial cells (FIG. 6)", "value": 30, "unit": "min"}, {"measurement": "IC50", "setting": "[3]; read-out: IC50 inhibition of cysteine uptake, neuronal cells", "value": 1.31, "unit": "nM"}, {"measurement": "IC50", "setting": "[4]", "value": 15.9, "unit": "nM"}, {"measurement": "ratio of SAM/SAH (methylation capacity)", "setting": "SH-SY5Y neuronal cells; different time points", "value": "affected"}, {"measurement": "GSH levels", "setting": "SH-SY5Y neuronal cells; [7]", "value": "time-dependent decreases"}, {"measurement": "cysteine levels", "setting": "SH-SY5Y neuronal cells; [7]", "value": "time-dependent decreases"}, {"measurement": "GSH/GSSG ratio (redox status)", "setting": "SH-SY5Y neuronal cells; neuronal cells, over time", "value": "decreased"}]}
{"molecule": "B1", "values": [{"measurement": "colon MPO activity", "setting": "[5]; beta-casein A1-fed rats compared to beta-casein A2-fed rats", "value": "increased"}, {"measurement": "effect on colon MPO activity in rats treated with naloxone", "setting": "[5]; rats treated with naloxone", "value": "not observed"}, {"measurement": "inflammation in the small intestine (jejunum MPO)", "setting": "[6]", "value": "no observable increase"}]}
{"molecule": "B2", "values": [{"measurement": "histology score", "setting": "colon tissue", "value": "significantly higher score"}]}
